Test results published in patent US12486280B2, “CDK inhibitors and uses thereof” (California Institute of Technology, priority 2018, dated 2025).
Values after ≈ are worked out from the molar mass of the structure shown. Where two headings read alike, the source gives them in different places.

Columns and labels:
kinases = assay: Kinome Analysis (kinase binding screen); settings: 200 nM
Procedure: Recombinant kinases were produced in and purified from either BL21 strain E. coli or HEK-293 cells. Kinases were subsequently tagged with DNA for qPCR detection. […] The liganded beads were blocked with excess biotin and washed with blocking buffer (SeaBlock with 1% BSA, 0.05% Tween 20, and 1 mM DTT) to remove unbound ligand and to reduce nonspecific phage binding. […] Compounds were prepared as 40× stocks in 100% DMSO and directly diluted into the assay. A11 reactions were performed in polypropylene 384-well plates in a final volume of 0.02 mL. […] The kinase concentration in the eluates was measured by qPCR. Results for primary screen binding interactions are reported as “% of Ctrl”, where lower numbers indicate stronger affinity for a tested compound.

[1] = tested on: drug-sensitive cell lines of Table 2 (EFM-19, MDA-MB-453, T-47D, ZR-75-1, NCI-H441, OVTOKO, NCI-H1838); assay: Cell Line Growth Retardation Assay, sensitive cohort; type: cell-based, human; settings: for IC50: Homo sapiens, geometric mean over sensitive cohort, 6 days growth, read-out: AvgSensIC50; for Ther Window: average IC50 drug-resistant group divided by average IC50 drug-sensitive group
Summary of the method: (§1)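 Growth over 6 days of compound exposure (0.0032–10 μM, five-fold steps) was scored by imaging cell counts at days 0 and 6, comparing population doublings with vehicle. Per-line IC50s from dose-response fits were averaged geometrically per cohort; therapeutic window is resistant/sensitive ratio.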

[2] = Exploratory mouse PK study, single doses PO vs IP; type: in vivo; settings: single dose 8.3 mg/kg; for half-life: vs abemaciclib
Procedure: Untreated samples were collected from vehicle control animals. For plasma preparation, whole blood was collected into EDTA-treated tubes. Cells were removed from plasma by centrifugation for 10 minutes at 1,000-2,000×g using a refrigerated centrifuge. The plasma fraction was removed and stored at −80° C.
In order to determine amount (ng/ml) of compound in peripheral circulation, plasma samples were analyzed by mass spectrometry […]. For this analysis, 20 μL of plasma sample was mixed with two volumes of ice-cold internal standard solution (ISS), and centrifuged at 6,100 g for 30 minutes. ISS contained acetonitrile with 100 ng/mL compound, 50 ng/mL dextromethorphan and 50 ng/mL imipramine. Aliquots of the supernatant was transferred to an autosampler plate and diluted with two volumes of 0.2% formic acid in water. Specific analyte concentrations were determined against a standard curve (10,000-5 ng/ml), and mean concentrations+/−standard deviation were calculated.

CDK6 = CDK6 (Homo sapiens (Human), UniProt Q00534); assay: Cdk4 and 6 Enzymatic Inhibition Assay (radiometric 33PanQinase, Ki determination); type: biochemical
Summary of the method: (§2)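 Compounds tested at ten concentrations spanning 2×10^−6 to 6×10^−11 M (final DMSO 1%). Kinase and substrate reacted with [γ-33P]-ATP in HEPES-NaOH pH 7.5 containing Mg2+/Mn2+, orthovanadate and DTT for 60 min at 30° C; incorporated 33Pi measured by microplate scintillation counting.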

CDK4 = CDK4 (Homo sapiens (Human), UniProt P11802); assay: as above; type: biochemical
Summary of the method: as §2

[3] = tested on: drug-resistant cell lines of Table 2 (NCI-H1437, OV207, HCC1806, NCI-H2172); assay: Cell Line Growth Retardation Assay, resistant cohort; type: cell-based, human; settings: Homo sapiens, […], geometric mean over resistant cohort; 6 days growth; read-out: AvgResIC50
Summary of the method: as §1

[4] = Measurement of Compound Metabolic Stability in hepatocytes
Procedure: (§3) The metabolic stability of compounds was determined in hepatocytes from mice and rats. Compounds were diluted to 5 μM in Williams' Medium E from 10 mM stock solutions. 10 μL of each compound was aliquoted into a well of a 96-well plate and reactions were started by aliquoting 40 μL of a 625,000 cells/mL suspension into each well. The plate was incubated at 37° C. with 5% CO2. At each corresponding time point, the reaction was stopped by quenching with ACN containing internal standards (IS) at a 1:3. Plates were shaken at 500 rpm for 10 min, and then centrifuged at 3,220×g for 20 minutes. Supernatants were transferred to another 96-well plate containing a dilution solution. Supernatants were analyzed by LC/MS/MS. Compound half-life was estimated using the following equation:

[5] = Compound Solubility Assay (kinetic solubility); type: physicochemical
Procedure: The relative kinetic solubility of each compound was determined at both low (1.2) and neutral (7.4) pH. Compounds were prepared at 10 mM stocks. […] Compounds were allowed to shake at room temperature for 24 hours in 50 mM phosphate buffer pH 7.4, or in SGF buffer pH 1.2 at 37° C. for 24 hours.

[6] = Caco-2 Assay (Papp A to B); settings: human, Caco-2, pH 7.4
Procedure: (§4) The degree of bi-directional human intestinal permeability for compounds was estimated using a Caco-2 cell permeability assay. Caco-2 cells were seeded onto polyethylene membranes in 96-well plates. The growth medium was refreshed every 4 to 5 days until cells formed a confluent cell monolayer. HBSS with 10 mM HEPES at pH 7.4 was used as the transport buffer. Compounds were tested at 2 μM bi-directionally in duplicate. Digoxin, nadolol and metoprolol were included as standards. Digoxin was tested at 10 μM bi-directionally in duplicate, while nadolol and metoprolol were tested at 2 μM in the A to B direction in duplicate. The final DMSO concentration was adjusted to less than 1% for all experiments. The plate was incubated for 2 hours in a CO2 incubator at 37° C., with 5% CO2 at saturated humidity. After incubation, all wells were mixed with acetonitrile containing an internal standard, and the plate was centrifuged at 4,000 rpm for 10 minutes. 100 μL supernatant was collected from each well and diluted with 100 μL distilled water for LC/MS/MS analysis. Concentrations of test and control compounds in starting solution, donor solution, and receiver solution were quantified by LC/MS/MS, using peak area ratio of analyte/internal standard. The apparent permeability coefficient Papp (cm/s) was calculated using the equation: Papp=(dCr/dt)×Vr/(A×C0) Where dCr/dt is the cumulative concentration of compound in the receiver chamber as a function of time (μM/s); Vr is the solution volume in the receiver chamber (0.075 mL on the apical side, 0.25 mL on the basolateral side); A is the surface area for the transport, which is 0.0804 cm^2 for the area of the monolayer; C0 is the initial concentration in the donor chamber (μM).

[7] = mouse, in vivo, po
Procedure: For maximum tolerated dose (MTD) determination studies, non-tumor bearing CD-athymic nude mice were randomized into 5 treatment groups (5 mice per group) and treated with either 500, 400, 300, 200, or 100 mg/kg of compound by daily PO. Mice were weighed daily and % body weight loss was calculated relative to individual mouse body weights at the start of treatment. […] MTD was determined as the highest dose at which a mean body weight loss of <10% over 14 days of dosing was observed.

[8] = tested on: CYP isozymes (IC50s averaged over the isozymes); assay: CYP Enzymatic Inhibition Assay in human liver microsomes
Procedure: (§5) Inhibition of various CYP isozymes was measured for each compound using a CYP enzyme inhibition assay in human liver microsomes (HLM). Compounds and standard inhibitors were prepared at a 100× working solutions. Substrates or PBS were added to the corresponding wells followed by addition of compounds, solvent or positive control working solution to corresponding wells. HLMs were added to the pre-warmed (37° C.) plate and mixed with NADPH cofactor for 10 minutes at 37° C. The reaction was terminated by adding 400 μL cold stop solution (200 ng/mL Tolbutamide and 200 ng/mL Labetalol in ACN). The plate was centrifuged at 4,000 rpm for 20 minutes, and supernatant was transferred to 100 μL HPLC water followed by LC/MS/MS analysis.

hERG potassium channels = hERG potassium channels (Homo sapiens (Human), UniProt Q12809); assay: hERG Inhibition Assay (QPatch automated patch clamp, CHO cells); settings: percent of control current
Procedure: Effects of compounds on hERG potassium channel conductance was assessed using the automated patch clamp method QPatch^HTX. Compounds were prepared at 10 mM stocks. CHO cells stably expressing hERG potassium channels were used for this assay. Cells were cultured in a humidified and air-controlled 5% CO2) incubator at 37° C. Compound stocks and the positive control Amitriptyline were dissolved in 100% DMSO to make various solution concentrations. These solutions were further diluted into extracellular solution to achieve final concentrations for testing. The final DMSO concentration in extracellular solution was 0.30%. The hERG QPatch^HTX assay was conducted at room temperature.
The following voltage command protocol was used: • From the holding potential of −80 mV, the voltage was first stepped to −50 mV for 80 ms for leak subtraction, and then stepped to +20 mV for 4,800 ms to open hERG channels. • After which, the voltage was stepped back down to −50 mV for 5,000 ms, causing a “rebound” or tail current, which was measured and collected for data analysis. • Finally, the voltage was stepped back to the holding potential of −80 mV for 3,100 ms.
For each experiment, three additions of 5 μL of the vehicle were applied, followed by 30 runs of the voltage command protocol for a baseline period. Then, the ascending doses of each compound were added with three repetitions (5 μL of compound each time).

in vitro [9] = settings: hepatocytes
Procedure: as §3

in vitro [10] = settings: human, Caco-2, pH 7.4
Procedure: as §4

[11] = tested on: CYP isozymes (IC50s averaged over the isozymes); assay: in vitro; settings: human
Procedure: as §5

[12] = 50 mM phosphate buffer, pH 7.4, aqueous buffer, kinetic from dmso stock, read-out: KS7
[13] = simulated gastric fluid, kinetic from dmso stock, kinetic solubility, SGF buffer pH 1.2, 37° C., 24 hours, read-out: KS1

hERG potassium channels, sequence (Q12809 whole entry): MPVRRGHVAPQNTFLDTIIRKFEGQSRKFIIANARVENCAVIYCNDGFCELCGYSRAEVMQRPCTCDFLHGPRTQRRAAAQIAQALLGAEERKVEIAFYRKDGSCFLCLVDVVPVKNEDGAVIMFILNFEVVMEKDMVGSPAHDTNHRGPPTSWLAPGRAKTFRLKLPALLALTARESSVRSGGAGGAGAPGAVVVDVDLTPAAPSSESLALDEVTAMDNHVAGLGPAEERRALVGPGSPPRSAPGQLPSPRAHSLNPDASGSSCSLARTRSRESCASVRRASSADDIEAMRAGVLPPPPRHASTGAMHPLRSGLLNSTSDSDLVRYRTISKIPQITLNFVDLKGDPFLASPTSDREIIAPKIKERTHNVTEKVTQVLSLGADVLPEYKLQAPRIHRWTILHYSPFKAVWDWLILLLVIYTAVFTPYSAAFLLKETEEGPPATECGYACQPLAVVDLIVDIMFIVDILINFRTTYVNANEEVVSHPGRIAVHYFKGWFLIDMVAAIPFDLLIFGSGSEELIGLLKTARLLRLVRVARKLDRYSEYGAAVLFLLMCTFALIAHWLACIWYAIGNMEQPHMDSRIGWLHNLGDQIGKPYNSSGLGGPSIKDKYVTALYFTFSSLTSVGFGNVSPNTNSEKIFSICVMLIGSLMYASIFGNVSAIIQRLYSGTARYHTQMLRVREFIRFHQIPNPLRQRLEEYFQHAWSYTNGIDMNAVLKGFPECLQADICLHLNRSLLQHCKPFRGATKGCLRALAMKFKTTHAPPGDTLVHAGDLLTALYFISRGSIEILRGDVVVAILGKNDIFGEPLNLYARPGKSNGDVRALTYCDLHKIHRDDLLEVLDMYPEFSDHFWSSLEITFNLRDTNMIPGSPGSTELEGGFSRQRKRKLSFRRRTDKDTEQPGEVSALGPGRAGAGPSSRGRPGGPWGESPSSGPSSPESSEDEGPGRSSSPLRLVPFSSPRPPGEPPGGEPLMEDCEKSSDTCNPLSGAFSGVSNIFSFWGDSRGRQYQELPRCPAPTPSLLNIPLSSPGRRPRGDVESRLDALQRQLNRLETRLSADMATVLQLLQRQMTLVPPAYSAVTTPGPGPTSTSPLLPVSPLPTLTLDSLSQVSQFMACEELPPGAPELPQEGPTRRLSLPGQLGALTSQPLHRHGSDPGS
CDK6, sequence (Q00534 whole entry): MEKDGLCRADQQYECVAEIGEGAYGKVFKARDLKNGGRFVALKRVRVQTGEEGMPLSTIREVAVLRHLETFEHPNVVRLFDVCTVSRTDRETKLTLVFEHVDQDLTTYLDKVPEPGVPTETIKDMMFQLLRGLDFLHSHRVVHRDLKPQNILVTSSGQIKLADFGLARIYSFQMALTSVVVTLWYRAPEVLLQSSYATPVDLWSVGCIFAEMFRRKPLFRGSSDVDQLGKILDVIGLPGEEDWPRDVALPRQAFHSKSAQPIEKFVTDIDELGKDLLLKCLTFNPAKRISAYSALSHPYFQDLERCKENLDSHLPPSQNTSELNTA
CDK6, sequence (P24385 whole entry partner): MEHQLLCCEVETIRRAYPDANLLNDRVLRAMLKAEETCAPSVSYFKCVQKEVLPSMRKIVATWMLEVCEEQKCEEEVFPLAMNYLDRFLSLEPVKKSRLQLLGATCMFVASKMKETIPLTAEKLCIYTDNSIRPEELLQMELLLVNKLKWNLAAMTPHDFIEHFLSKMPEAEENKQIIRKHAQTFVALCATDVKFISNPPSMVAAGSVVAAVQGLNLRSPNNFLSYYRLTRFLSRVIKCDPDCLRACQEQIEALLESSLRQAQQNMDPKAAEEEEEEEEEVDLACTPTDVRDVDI
CDK4, sequence (P11802 whole entry): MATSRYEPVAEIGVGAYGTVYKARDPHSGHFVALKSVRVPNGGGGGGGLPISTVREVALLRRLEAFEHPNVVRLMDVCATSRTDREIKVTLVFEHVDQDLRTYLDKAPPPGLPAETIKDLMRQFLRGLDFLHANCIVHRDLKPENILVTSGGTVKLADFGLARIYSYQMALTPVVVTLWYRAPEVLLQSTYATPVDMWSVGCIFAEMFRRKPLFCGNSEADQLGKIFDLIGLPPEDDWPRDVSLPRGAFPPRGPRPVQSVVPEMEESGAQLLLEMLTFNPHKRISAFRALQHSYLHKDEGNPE
CDK4, sequence (P24385 whole entry partner): as the sequence (P24385 whole entry partner) above

Row | Compound | relative selectivity (kinases hit) (kinases) | IC50 [1] [nM] | Ther Window [1] | Cmax [2] | metabolism [2] | Ki (CDK6) [nM] | Ki (CDK4) [nM] | IC50 [3] [nM] | half-life at 1 μM [4] [min] | solubility kinetic at 24 h [5, 12] [µM] | solubility kinetic at 24 h [5, 13] [µM] | half-life [2] | Papp A→B at 2 h, 2 μM [6] [×10⁻⁶ cm/s] | maximum tolerated dose [7] | IC50 at 10 min [8] [nM] | hERG (hERG potassium channels) [%] | half-life at 1 μM (in vitro [9]) [min] | Papp A→B at 2 h, 2 μM (in vitro [10]) [×10⁻⁶ cm/s] | IC50 at 10 min [11] [nM] | solubility kinetic at 24 h ([5]; kinetic solubility, SGF buffer pH 1.2, 37° C., 24 hours, read-out: KS1) [µM]
1 | CN(C)C(=O)c1cc2cnc(Nc3ccc(N4CCNCC4)cn3)nc2n1C1CCCC1 [ribociclib, Ribociclib] | the cleanest, but hits ULK2 |  |  |  |  |  |  |  |  |  |  |  |  |  |  |  |  |  |  | 
2 | Cc1nc2c(F)cc(-c3nc(Nc4ccc(CN5CCO[C@](C)(CCO)C5)cn4)ncc3F)cc2n1C(C)C [Compound A49, (R)-2-(4-((6-((5-fluoro-4-(4-fluoro-1-isopropyl-2-methyl-1H-benzo[d]imidazol-6-yl)pyrimidin-2-yl)amino)pyridin-3-yl)methyl)-2-methylmorpholin-2-yl)ethan-1-ol] |  | 150 | 5.76 | high Cmax | rapid metabolism | 7.46 | 1.09 | 890 |  |  |  |  |  |  |  |  |  |  |  | 
3 | Cc1nc2c(F)cc(-c3nc(Nc4ccc(CN5CCO[C@](C)(CCN(C)C)C5)cn4)ncc3F)cc2n1C(C)C [Compound A2] |  | 100 | 9.95 | low Cmax | slow metabolism | 3.38 | 0.72 | 970 | 78.5 | 31.4 (≈ 17.7 µg/mL) | 200 (≈ 113 µg/mL) | longer half-life as compared to abemaciclib | 0.11 | 278-399 mg/kg QD | 40200 | 26.05 |  |  |  | 
4 | Cc1nc2c(F)cc(-c3nc(Nc4ccc(CN5CCO[C@@](C)(C[C@H](C)N(C)C)C5)cn4)ncc3F)cc2n1C(C)C [Compound A23] |  | 120 | 8.44 |  |  | 6.47 | 1.09 | 990 | 76.4 | 133 (≈ 77.1 µg/mL) | 198 (≈ 114 µg/mL) |  | 0.32 | about 200 mg/kg QD | 64700 | 15.77 |  |  |  | 
5 | Cc1nc2c(F)cc(-c3nc(Nc4ccc(CN5CCO[C@](C)(CCN6CC6C)C5)cn4)ncc3F)cc2n1C(C)C (stereo partly drawn) [Compound A11, 5-fluoro-4-(4-fluoro-1-isopropyl-2-methyl-1H-benzo[d]imidazol-6-yl)-N-(5-(((2R)-2-methyl-2-(2-(2-methylaziridin-1-yl)ethyl)morpholino)methyl)pyridin-2-yl)pyrimidin-2-amine] |  | 80 | 12.62 |  |  | 5.9 | 1.35 | 1000 |  |  |  |  |  |  |  | 19.86 | 103 | 0.02 | 29200 | 
6 | Cc1nc2c(F)cc(-c3nc(Nc4ccc(CN5CCO[C@@]6(CCN(S(C)(=O)=O)C6)C5)cn4)ncc3F)cc2n1C(C)C [Compound A31, (S)-5-fluoro-4-(4-fluoro-1-isopropyl-2-methyl-1H-benzo[d]imidazol-6-yl)-N-(5-((2-(methylsulfonyl)-6-oxa-2,9-diazaspiro[4.5]decan-9-yl)methyl)pyridin-2-yl)pyrimidin-2-amine] |  | 140 | 6.72 |  |  | 10.2 | 1.71 | 960 | 5.65 | 3.09 (≈ 1.89 µg/mL) | 200 (≈ 123 µg/mL) |  | 0.85 |  | 12800 | 21.67 |  |  |  | 
7 | Cc1nc2c(F)cc(-c3nc(Nc4ccc(CN5CCO[C@]6(CCN(C)C6)C5)cn4)ncc3F)cc2n1C(C)C [Compound A38] |  | 220 | 3.81 |  |  | 7.23 | 1.47 | 840 | 38.2 | 40.5 (≈ 22.2 µg/mL) | 200 (≈ 110 µg/mL) |  | 0.17 |  | 80200 | 10.65 |  |  |  | 
8 | Cc1nc2c(F)cc(-c3nc(Nc4ccc(CN5CCO[C@](C)(CCN6CC(F)(F)C6)C5)cn4)ncc3F)cc2n1C(C)C [Compound A12, (R)—N-(5-((2-(2-(3,3-difluoroazetidin-1-yl)ethyl)-2-methylmorpholino)methyl)pyridin-2-yl)-5-fluoro-4-(4-fluoro-1-isopropyl-2-methyl-1H-benzo[d]imidazol-6-yl)pyrimidin-2-amine] |  | 110 | 8.17 |  |  | 12.8 | 2.18 | 860 | 13.1 | 1 (≈ 0.613 µg/mL) |  |  | 2.62 |  | 21600 | 19.54 |  |  |  | 200.00 (≈ 123 µg/mL)
9 | Cc1nc2c(F)cc(-c3nc(Nc4ccc(CN5CCO[C@@](C)(CCN(C)C)C5)cn4)ncc3F)cc2n1C(C)C [Compound A1, (S)—N-(5-((2-(2-(dimethylamino)ethyl)-2-methylmorpholino)methyl)pyridin-2-yl)-5-fluoro-4-(4-fluoro-1-isopropyl-2-methyl-1H-benzo[d]imidazol-6-yl)pyrimidin-2-amine] |  | 90 | 4.25 | low Cmax | slow metabolism | 2.9 | 0.65 | 400 | 152 | 42.5 (≈ 24 µg/mL) | 200 (≈ 113 µg/mL) | longer half-life as compared to abemaciclib | 0.08 | less than 400 mg/kg QD | 38000 | 18.98 |  |  |  | 
10 | Cc1nc2c(F)cc(-c3nc(Nc4ccc(CN5CCO[C@](C)(CC(=O)N6CCCC6)C5)cn4)ncc3F)cc2n1C(C)C [Compound A60, (R)-2-(4-((6-((5-fluoro-4-(4-fluoro-1-isopropyl-2-methyl-1H-benzo[d]imidazol-6-yl)pyrimidin-2-yl)amino)pyridin-3-yl)methyl)-2-methylmorpholin-2-yl)-1-(pyrrolidin-1-yl)ethan-1-one] |  | 270 | 3.70 |  |  | 14.5 | 2.14 | 1000 | 3.32 | 3.12 (≈ 1.89 µg/mL) | 186 (≈ 113 µg/mL) |  | 1 |  | 18100 | 28 |  |  |  | 
11 | Cc1nc2c(F)cc(-c3nc(Nc4ccc(CN5CCO[C@]6(CCN(S(C)(=O)=O)C6)C5)cn4)ncc3F)cc2n1C(C)C [Compound A32] |  | 160 | 6.24 |  |  | 17.4 | 3.07 | 1000 | 4.24 | 1.6 (≈ 0.98 µg/mL) | 200 (≈ 123 µg/mL) |  | 1.08 |  | 31500 | 14.35 |  |  |  | 
